Results from patent US10065941B2, “Aminotriazine derivative and pharmaceutical composition comprising the same” (Shionogi & Co., Ltd., priority 2013, dated 2018).

Biological target: human P2X3 receptor (Homo sapiens (Human), UniProt P56373)
Assay: Evaluation of human P2X3 receptor inhibitory activity (Test Example 1)
Format: cell-based
Conditions: C6BU-1 cell transfected with human P2X3 receptor gene, FLIPR 384
Method in brief: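 FLIPR calcium read-out: signal taken as peak fluorescence after ATP addition divided by starting fluorescence, and IC50 calculated from it. Compound added 5 min before 150 nM ATP solution (pre-dispense stock) to Fluo-3-AM-loaded C6BU-1 cells stably transfected with human P2X3; HEPES buffer pH 7.5 with probenecid.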

Chain of human P2X3 receptor (P56373 whole entry): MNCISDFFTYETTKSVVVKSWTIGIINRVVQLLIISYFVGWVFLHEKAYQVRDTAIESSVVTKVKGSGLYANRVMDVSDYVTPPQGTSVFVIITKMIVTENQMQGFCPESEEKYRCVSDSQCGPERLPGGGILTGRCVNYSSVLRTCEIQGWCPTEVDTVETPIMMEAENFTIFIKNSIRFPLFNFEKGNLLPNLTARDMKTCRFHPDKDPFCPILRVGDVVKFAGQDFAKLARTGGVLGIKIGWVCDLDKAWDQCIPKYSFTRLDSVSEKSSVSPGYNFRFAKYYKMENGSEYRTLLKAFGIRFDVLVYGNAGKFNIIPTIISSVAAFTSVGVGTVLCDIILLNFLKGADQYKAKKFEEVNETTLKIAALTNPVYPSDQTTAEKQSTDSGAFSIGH

| Structure (SMILES) | IC50 |
| --- | --- |
| COC(=O)[C@@H](C)Cn1c(=O)[nH]/c(=N\c2ccc(Oc3ccccn3)cc2)n(Cc2ccc(C(F)F)cc2)c1=O [Compound I-194] | 12 nM |
| O=c1[nH]/c(=N\c2ccc(Oc3ncccc3F)cc2)n(Cc2ccc(Cl)cc2)c(=O)n1CC1(CO)COC1 [Compound R-083] | 7 nM |
| COCc1cccc(Oc2ccc(/N=c3\[nH]c(=O)n(C[C@H](C)C(=O)O)c(=O)n3Cc3ccc(Cl)cc3)cc2)n1 [Compound I-255] | 18 nM |
| Cc1ccc(Cn2c(=O)n(CCCC(=O)O)c(=O)[nH]/c2=N\c2ccc(Oc3ncccc3F)cc2)cc1 [Compound R-277] | 14 nM |
| O=C(O)c1cccc(-c2ccc(Oc3ccc(/N=c4\[nH]c(=O)[nH]c(=O)n4Cc4ccc(Cl)cc4)cc3)nc2)c1 [Compound R-003] | 4 nM |
| COC(=O)C(C)(C)Cn1c(=O)[nH]/c(=N\c2ccc(Oc3cc(F)nc(F)c3)cc2)n(Cc2ccc(Cl)cc2)c1=O [Compound R-041] | 11 nM |
| CC(C)(C)n1c(=O)[nH]/c(=N\c2ccc(Oc3cccc(C(N)=O)n3)cc2)n(Cc2ccc(Cl)cc2)c1=O [Compound R-233] | 318 nM |
| Cc1ccnc(Oc2ccc(/N=c3\[nH]c(=O)n([C@@H](C)[C@@H](C)C(=O)O)c(=O)n3Cc3ccc(Cl)cc3)cc2)c1 [Compound I-111] | 9 nM |
| C[C@@H](Cn1c(=O)[nH]/c(=N\c2ccc(Oc3nc4ccccc4o3)cc2)n(Cc2ccc(Cl)cc2)c1=O)C(=O)O [Compound R-144] | 5 nM |
| COC(=O)C(C)(C)Cn1c(=O)[nH]/c(=N\c2ccc(O[C@H](C)C(F)(F)F)c(F)c2)n(Cc2ccc(Cl)cc2)c1=O [Compound R-091] | 108 nM |
| C[C@H](CC(=O)O)n1c(=O)[nH]/c(=N\c2ccc(Oc3ncccc3F)cc2)n(Cc2ccc(Cl)cc2)c1=O [Compound I-166] | 13 nM |
| COC(=O)[C@@H](C)Cn1c(=O)[nH]/c(=N\c2ccc(Oc3ccccn3)cc2)n(Cc2ccc(Cl)s2)c1=O [Compound I-271] | 10 nM |
| COC(=O)C[C@@H](C)n1c(=O)[nH]/c(=N\c2ccc(Oc3ccc(F)cn3)cc2)n(Cc2ccc(Cl)cc2)c1=O [Compound I-160] | 5 nM |
| COC(=O)C(C)(C)Cn1c(=O)[nH]/c(=N\c2ccc(Oc3ccc(OC(F)F)cn3)cc2)n(Cc2ccc(Cl)cc2)c1=O [Compound I-021] | 25 nM |
| Cc1ccc(Cn2c(=O)n(CCC(=O)O)c(=O)[nH]/c2=N\c2ccc(Oc3ccccn3)c(F)c2)cc1 [Compound R-280] | 9 nM |
| COC(=O)[C@H](C)[C@H](C)n1c(=O)[nH]/c(=N\c2ccc(Oc3cnccn3)cc2)n(Cc2ccc(Cl)cc2)c1=O [Compound R-167] | 11 nM |
| O=c1[nH]/c(=N\c2ccc(Oc3ccc(F)cn3)cc2)n(Cc2ccc(Cl)cc2)c(=O)n1[C@H]1C[C@@H](C(=O)O)C1 [Compound I-020] | 9 nM |
| CC1(C)OC[C@@H](Cn2c(=O)[nH]/c(=N\c3ccc(Oc4ccccn4)cc3)n(Cc3ccc(Cl)cc3)c2=O)O1 [Compound R-247] | 5 nM |
| COC(=O)[C@H](C)[C@H](C)n1c(=O)[nH]/c(=N\c2ccc(Oc3cnc(Cl)cn3)cc2)n(Cc2ccc(Cl)cc2)c1=O [Compound R-159] | 18 nM |
| COC(=O)CCn1c(=O)[nH]/c(=N\c2ccc(Oc3cccc(F)n3)cc2)n(Cc2ccc(CF)cc2)c1=O [Compound R-286] | 6 nM |

| Structure (SMILES) | IC50 |
| --- | --- |
| CC(C)(Cn1c(=O)[nH]/c(=N\c2ccc(Oc3cnccn3)cc2)n(Cc2ccc(Cl)cc2)c1=O)C(=O)O [Compound R-020] | 13 nM |
| C[C@@H](Cn1c(=O)[nH]/c(=N\c2ccc(Oc3ccc(F)cn3)cc2)n(CC2CCC3(CC2)CC3)c1=O)C(=O)O [Compound I-235] | 9 nM |
| COc1cccc(Oc2ccc(/N=c3\[nH]c(=O)n(C[C@H](C)C(=O)O)c(=O)n3Cc3ccc(C)cc3)cc2)n1 [Compound I-218] | 10 nM |
| CCOC(=O)[C@H]1C[C@H](n2c(=O)[nH]/c(=N\c3ccc(Oc4ccc(F)cn4)cc3)n(Cc3ccc(C)cc3)c2=O)C1 [Compound I-176] | 7 nM |
| CCOC(=O)Cn1c(=O)[nH]/c(=N\c2ccc(Oc3ccc(F)cn3)cc2)n(Cc2ccc(Cl)cc2)c1=O [Compound R-309] | 4 nM |
| CC(C)(Cn1c(=O)[nH]/c(=N\c2ccc(Oc3ccnc(C#N)c3)cc2)n(Cc2ccc(Cl)cc2)c1=O)C(=O)O [Compound R-108] | 8 nM |
| COc1ccnc(Oc2ccc(/N=c3\[nH]c(=O)n(C[C@H](C)C(=O)O)c(=O)n3Cc3ccc(Cl)cc3)cc2)c1 [Compound I-069] | 7 nM |
| CC(C)(Cn1c(=O)[nH]/c(=N\c2ccc(N3CCCCC3)c(F)c2)n(Cc2ccc(Cl)cc2)c1=O)C(=O)O [Compound R-147] | 51 nM |
| COC(=O)C(C)(C)Cn1c(=O)[nH]/c(=N\c2ccc(Oc3cncc(Cl)c3)cc2)n(Cc2ccc(Cl)cc2)c1=O [Compound R-080] | 13 nM |
| COC(=O)CCn1c(=O)[nH]/c(=N\c2ccc(Oc3ccccn3)c(Cl)c2)n(Cc2ccc(Cl)cc2)c1=O [Compound R-300] | 8 nM |
| COC(=O)[C@@H](C)Cn1c(=O)[nH]/c(=N\c2ccc(Oc3ccccn3)cc2)n(C[C@H]2CC[C@H](C)CC2)c1=O [Compound I-142] | 7 nM |
| COC(=O)[C@@H](C)Cn1c(=O)[nH]/c(=N\c2ccc(Oc3ccc(Cl)cn3)cc2)n(Cc2ccc(C)cc2)c1=O [Compound I-097] | 5 nM |
| C[C@@H](Cn1c(=O)[nH]/c(=N\c2ccc(Oc3ccccn3)cc2)n(Cc2ccc(CF)cc2)c1=O)C(=O)O [Compound I-214] | 11 nM |
| C[C@@H](Cn1c(=O)[nH]/c(=N\c2ccc(Oc3cccc(CO)n3)cc2)n(Cc2ccc(Cl)cc2)c1=O)C(=O)O [Compound I-257] | 16 nM |
| CCOC(=O)[C@H]1C[C@@H](n2c(=O)[nH]/c(=N\c3ccc(Oc4ccc(Cl)cn4)cc3)n(Cc3ccc(C)cc3)c2=O)C1 [Compound I-173] | 8 nM |
| C[C@@H](Cn1c(=O)[nH]/c(=N\c2ccc(Oc3ncns3)cc2)n(Cc2ccc(Cl)cc2)c1=O)C(=O)O [Compound R-195] | 9 nM |
| NC(=O)NC(=O)Cn1c(=O)[nH]/c(=N\c2ccc(Oc3ccccn3)cc2)n(Cc2ccc(Cl)cc2)c1=O [Compound R-256] | 2 nM |
| CCOC(=O)[C@H]1C[C@@H](n2c(=O)[nH]/c(=N\c3ccc(Oc4ccc(F)cn4)cc3)n(Cc3ccc(C)cc3)c2=O)C1 [Compound I-177] | 6 nM |
| COc1ccc(Oc2ccc(/N=c3\[nH]c(=O)n([C@@H](C)[C@@H](C)C(=O)O)c(=O)n3Cc3ccc(Cl)cc3)cc2)nn1 [Compound R-191] | 12 nM |
| COC(=O)[C@@H](C)Cn1c(=O)[nH]/c(=N\c2ccc(Oc3ccc(CO)cn3)cc2)n(Cc2ccc(Cl)cc2)c1=O [Compound I-083] | 6 nM |

| Structure (SMILES) | IC50 |
| --- | --- |
| C[C@@H](Cn1c(=O)[nH]/c(=N\c2ccc(Oc3ncccc3F)cc2)n(Cc2ccc(CF)cc2)c1=O)C(=O)O [Compound I-215] | 16 nM |
| Cc1ccc(Cn2c(=O)n([C@@H](C)[C@@H](C)C(=O)O)c(=O)[nH]/c2=N\c2ccc(Oc3ccc(OC(F)F)cn3)cc2)cc1 [Compound I-138] | 7 nM |
| COC(=O)[C@@H](C)Cn1c(=O)[nH]/c(=N\c2ccc(Oc3ccc(CF)nc3)cc2)n(Cc2ccc(Cl)cc2)c1=O [Compound I-239] | 6 nM |
| C[C@@H](C(=O)O)[C@H](C)n1c(=O)[nH]/c(=N\c2ccc(Oc3ccccn3)c(F)c2)n(Cc2ccc(Cl)cc2)c1=O [Compound I-231] | 7 nM |
| C[C@@H](Cn1c(=O)[nH]/c(=N\c2ccc(Oc3nc(C(F)(F)F)ns3)cc2)n(Cc2ccc(Cl)cc2)c1=O)C(=O)O [Compound R-145] | 11 nM |
| COC(=O)[C@@H](C)Cn1c(=O)[nH]/c(=N\c2ccc(Oc3cnccn3)c(C)c2)n(Cc2ccc(Cl)cc2)c1=O [Compound R-111] | 5 nM |
| C[C@@H](Cn1c(=O)[nH]/c(=N\c2ccc(Oc3cc(F)nc(F)c3)cc2)n(Cc2ccc(Cl)cc2)c1=O)C(=O)O [Compound R-057] | 6 nM |
| CCn1c(=O)[nH]/c(=N\c2ccc(Oc3ccc(Cl)nc3C#N)cc2)n(Cc2ccc(Cl)cc2)c1=O [Compound R-166] | 48 nM |
| CCOC(=O)[C@H]1C[C@H](n2c(=O)[nH]/c(=N\c3ccc(Oc4ccccn4)cc3)n(Cc3ccc(C)cc3)c2=O)C1 [Compound I-180] | 5 nM |
| COC(=O)[C@@H](C)Cn1c(=O)[nH]/c(=N\c2ccc(Oc3ccnc(F)c3)cc2)n(Cc2ccc(C)cc2)c1=O [Compound R-221] | 5 nM |
| C[C@@H](Cn1c(=O)[nH]/c(=N\c2ccc(Oc3cccc(F)n3)cc2)n(Cc2ccc(CF)cc2)c1=O)C(=O)O [Compound I-217] | 11 nM |
| O=c1[nH]/c(=N\c2ccc(Oc3ncccc3F)cc2)n(Cc2ccc(Cl)cc2)c(=O)n1[C@H]1C[C@@H](C(=O)O)C1 [Compound I-064] | 10 nM |
| Cc1ccc(Cn2c(=O)n(C[C@H](C)C(=O)O)c(=O)[nH]/c2=N\c2ccc(Oc3ccc(C)cn3)cc2)cc1 [Compound I-112] | 4 nM |
| COC(=O)[C@H](C)[C@H](C)n1c(=O)[nH]/c(=N\c2ccc(Oc3ccnc(Cl)c3)cc2)n(Cc2ccc(Cl)cc2)c1=O [Compound R-150] | 18 nM |
| Cc1ccc(Cn2c(=O)n(CC(C)(C)C(=O)O)c(=O)[nH]/c2=N\c2ccc(Oc3ccc(C)cn3)cc2)cc1 [Compound I-114] | 6 nM |
| COC(=O)[C@H](C)[C@H](C)n1c(=O)[nH]/c(=N\c2ccc(Oc3ccc(F)cn3)c(F)c2)n(Cc2ccc(Cl)cc2)c1=O [Compound I-001] | 44 nM |
| CCOC(=O)[C@H]1C[C@@H](Oc2ccc(/N=c3\[nH]c(=O)n(CC)c(=O)n3Cc3ccc(Cl)cc3)cc2)C1 [Compound R-062] | 318 nM |
| COC(=O)[C@@H](C)Cn1c(=O)[nH]/c(=N\c2ccc(Oc3ccc(OC)cn3)cc2)n(Cc2ccc(C)cc2)c1=O [Compound I-222] | 4 nM |
| COC(=O)C[C@@H](C)n1c(=O)[nH]/c(=N\c2ccc(Oc3cccc(F)n3)cc2)n(Cc2ccc(Cl)cc2)c1=O [Compound I-158] | 6 nM |
| C[C@@H](Cn1c(=O)[nH]/c(=N\c2ccc(Oc3cnc(C(F)(F)F)cn3)cc2)n(Cc2ccc(Cl)cc2)c1=O)C(=O)O [Compound R-039] | 6 nM |
